Measurements as given in patent US20050209289A1, “Method for vascular dysregulation” (priority 2004, published 2005).

System: clinical patients
Assay: Clinical patient encounters treated with vascular dysregulation techniques (trigger elimination plus calcium channel blocker and/or antiemetic); case reports
Type: in vivo, human
Conditions: person
Method: At Step 36, a personal and family medical history of a patient is collected during a patient encounter. […] At Step 42, a list of environmental triggers for the one or more determined dysregulation pathways to be avoided is prepared for the patient. At Step 44, a list of medical triggers for the one or more determined dysregulation pathway to be avoided is prepared for the patient. At Step 46, the patient's current medication profile, if any, is adjusted for the one or more determined dysregulation pathways, thereby treating the medical condition via the one or more determined dysregulation pathways.
At Step 50, a test is conducted to determine whether a patient has a chronic medical condition and has one or more common symptoms based on a personal and medical history collected during a patient encounter. […] The vascular dysregulation techniques include eliminating environmental triggers, eliminating medical triggers and adjusting patient's current medication profile.

In the case of COc1ccc([C@@H]2Sc3ccccc3N(CCN(C)C)C(=O)[C@@H]2OC(C)=O)cc1 [diltiazem], the “Cold toes and fingers, Patient E” value (cold toes and fingers, migraine headaches, off caffeine) is reported as “obtained warm fingers and toes”, the “Severe headaches and insomnia, Patient H” value (coffee and diet sodas eliminated, daily dose) is reported as “severe headaches were eliminated and they are sleeping soundly” and the “Singing voice (unexpected effect), Patient E” value (off caffeine, presumed secondary to decreased post-nasal drip and nasal congestion) is reported as “significantly stronger singing voice”.
